Test results published in US20140011799A1 (Bristol-Myers Squibb Company, priority 2012, published 2014).

Experiments:
Endothelial lipase (EL) = target: T1, Endothelial lipase (EL) (Homo sapiens, UniProt Q9Y5X9); test: Endothelial lipase (EL) enzymatic assay, fluorescent substrate A10070 in DMPG vesicles; assay type: biochemical; conditions: EL from conditioned media of HT-1080 cells; compound preincubated 30 min at 37° C; read-out: EL IC50
T1 construct: HT-1080 cells that were transformed using RAGE technology (Athersys) to overexpress endogenous EL; endogenous in cells; conditioned medium used
T1 sequence (Q9Y5X9 21-500): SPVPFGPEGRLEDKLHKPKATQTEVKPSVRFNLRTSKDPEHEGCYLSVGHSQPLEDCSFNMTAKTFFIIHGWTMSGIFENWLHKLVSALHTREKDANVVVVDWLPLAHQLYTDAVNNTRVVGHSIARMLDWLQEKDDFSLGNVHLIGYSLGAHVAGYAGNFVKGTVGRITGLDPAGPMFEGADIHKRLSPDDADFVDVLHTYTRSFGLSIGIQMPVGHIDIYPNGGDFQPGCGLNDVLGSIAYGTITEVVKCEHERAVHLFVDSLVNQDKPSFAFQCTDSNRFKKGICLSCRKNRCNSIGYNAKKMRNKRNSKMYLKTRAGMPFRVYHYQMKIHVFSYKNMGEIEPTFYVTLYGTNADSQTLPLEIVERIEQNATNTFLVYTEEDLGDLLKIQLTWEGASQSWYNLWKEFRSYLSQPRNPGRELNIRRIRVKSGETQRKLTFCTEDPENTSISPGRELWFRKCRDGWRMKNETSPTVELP
Outline: (§1)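 Vesicles prepared: A10070 dried with DMPG, resuspended in HEPES pH 8.0/NaCl/EDTA, sonicated on ice. Enzyme incubated with compound 30 min at 37° C. Reaction started with 1:10 diluted vesicles. Fluorescence (490/530 nm) followed 60 min; slope from 300–900 secs gives rate.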

hepatic lipase (HL) = target: T2, hepatic lipase (HL) (Homo sapiens, UniProt P11150); test: Hepatic lipase (HL) enzymatic assay, fluorescent substrate A10070 in DMPG vesicles; assay type: biochemical; conditions: HL partially purified from conditioned media of COS cells; compound preincubated 30 min at 37° C; read-out: HL IC50
T2 construct: made in house; host or cells: COS cells (conditioned medium, partially purified)
T2 sequence (P11150 23-499): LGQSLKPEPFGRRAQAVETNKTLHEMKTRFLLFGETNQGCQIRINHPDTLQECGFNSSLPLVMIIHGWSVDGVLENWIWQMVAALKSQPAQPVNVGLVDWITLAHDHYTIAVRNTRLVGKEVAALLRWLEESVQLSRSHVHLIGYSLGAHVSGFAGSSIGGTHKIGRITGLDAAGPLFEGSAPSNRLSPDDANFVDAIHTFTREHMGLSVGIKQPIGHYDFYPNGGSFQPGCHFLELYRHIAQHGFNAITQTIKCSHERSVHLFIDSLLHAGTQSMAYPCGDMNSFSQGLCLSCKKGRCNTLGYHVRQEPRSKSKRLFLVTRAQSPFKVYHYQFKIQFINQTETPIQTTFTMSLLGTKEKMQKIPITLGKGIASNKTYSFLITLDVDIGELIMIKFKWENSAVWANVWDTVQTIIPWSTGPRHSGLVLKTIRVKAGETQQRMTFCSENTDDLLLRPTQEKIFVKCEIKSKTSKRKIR
Outline: as §1

| Compound | IC50 (Endothelial lipase (EL)) | IC50 (hepatic lipase (HL)) |
| --- | --- | --- |
| CN1CCN(C(=O)c2cccc(-c3ccc4nc(C(c5nnc(CNS(N)(=O)=O)o5)S(=O)(=O)CCC(F)(F)F)sc4c3)c2)CC1 (stereo not shown) [Example 201, N-((5-((6-(3-((4-methyl-1-piperazinyl)carbonyl)phenyl)-1,3-benzothiazol-2-yl)((3,3,3-trifluoropropyl)sulfonyl)methyl)-1,3,4-oxadiazol-2-yl)methyl)sulfamide] | < 0.01 µM | 0.365 µM |
| CS(=O)(=O)C(c1nnc(CNS(N)(=O)=O)o1)c1nc2ccc(-c3cccc(C(=O)N4CC(F)(F)C4)c3)cc2s1 (stereo not shown) [Example 202, N-((5-((6-(3-((3,3-difluoro-1-azetidinyl)carbonyl)phenyl)-1,3-benzothiazol-2-yl)(methylsulfonyl)methyl)-1,3,4-oxadiazol-2-yl)methyl)sulfamide] | < 0.01 µM | 0.035 µM |
| CC(C)(C)OC(=O)c1cccc(-c2ccc3nc(C(c4nnc(CC5(C)NC(=O)NC5=O)o4)S(C)(=O)=O)sc3c2)c1 (stereo not shown) [Example 203, tert-butyl 3-{2-[methanesulfonyl ({5-[(4-methyl-2,5-dioxoimidazolidin-4-yl)methyl]-1,3,4-oxadiazol-2-yl})methyl]-1,3-benzothiazol-6-yl}benzoate] | 0.033 µM | 0.002 µM |
| CC1(O)CN(C(=O)c2cccc(-c3ccc4nc(C(c5nnc(CC6(C)NC(=O)NC6=O)o5)S(C)(=O)=O)sc4c3)c2)C1 (stereo not shown) [Example 204, 5-{[5-({6-[3-(3-hydroxy-3-methylazetidine-1-carbonyl)phenyl]-1,3-benzothiazol-2-yl} (methanesulfonyl)methyl)-1,3,4-oxadiazol-2-yl]methyl}-5-methyl-imidazolidine-2,4-dione] | 0.017 µM | 0.783 µM |
| COCCNC(=O)c1cccc(-c2ccc3nc(C(c4nnc(CC5(C)NC(=O)NC5=O)o4)S(C)(=O)=O)sc3c2)c1 (stereo not shown) [Example 205, 3-{2-[methanesulfonyl({5-[(4-methyl-2,5-dioxoimidazolidin-4-yl)methyl]-1,3,4-oxadiazol-2-yl})methyl]-1,3-benzothiazol-6-yl}-N-(2-methoxyethyl)benzamide] | 0.018 µM | 0.449 µM |
| CC1(Cc2nnc(C(c3nc4ccc(-c5cccc(C(=O)N6CC(F)C6)c5)cc4s3)S(C)(=O)=O)o2)NC(=O)NC1=O (stereo not shown) [Example 206, 5-{[5-({6-[3-(3-fluoroazetidine-1-carbonyl)phenyl]-1,3-benzothiazol-2-yl} (methanesulfonyl)methyl)-1,3,4-oxadiazol-2-yl]methyl}-5-methyl-imidazolidine-2,4-dione] | 0.016 µM | 0.125 µM |
| CC1(Cc2nnc(C(c3nc4ccc(-c5cccc(C(=O)N6CC[C@H](O)C6)c5)cc4s3)S(C)(=O)=O)o2)NC(=O)NC1=O (stereo partly drawn) [Example 207, 5-({5-[(6-{3-[(3S)-3-hydroxypyrrolidine-1-carbonyl]phenyl}-1,3-benzothiazol-2-yl) (methanesulfonyl)methyl]-1,3,4-oxadiazol-2-yl}methyl)-5-methyl-imidazolidine-2,4-dione] | 0.022 µM | 0.37 µM |
| CC1(Cc2nnc(C(c3nc4ccc(-c5cccc(C(=O)N6CC(F)(F)C6)c5)cc4s3)S(C)(=O)=O)o2)NC(=O)NC1=O (stereo not shown) [Example 208, 5-{[5-({6-[3-(3,3-difluoroazetidine-1-carbonyl)phenyl]-1,3-benzothiazol-2-yl} (methanesulfonyl)methyl)-1,3,4-oxadiazol-2-yl]methyl}-5-methyl-imidazolidine-2,4-dione] | 0.177 µM | 0.131 µM |

More lines, now with the values ahead:

| IC50 (Endothelial lipase (EL)) | IC50 (hepatic lipase (HL)) | Compound |
| --- | --- | --- |
| 0.018 µM | 0.227 µM | COC1CN(C(=O)c2cccc(-c3ccc4nc(C(c5nnc(CC6(C)NC(=O)NC6=O)o5)S(C)(=O)=O)sc4c3)c2)C1 (stereo not shown) [Example 209, 5-({5-[methanesulfonyl({6-[3-(3-methoxyazetidine-1-carbonyl)phenyl]-1,3-benzothiazol-2-yl})methyl]-1,3,4-oxadiazol-2-yl}methyl)-5-methyl-imidazolidine-2,4-dione] |
| 0.009 µM | 0.365 µM | CC1(Cc2nnc(C(c3nc4ccc(-c5cccc(C(=O)N6CCOCC6)c5)cc4s3)S(C)(=O)=O)o2)NC(=O)NC1=O (stereo not shown) [Example 210, 5-({5-[methanesulfonyl({6-[3-(morpholine-4-carbonyl)phenyl]-1,3-benzothiazol-2-yl})methyl]-1,3,4-oxadiazol-2-yl}methyl)-5-methyl-imidazolidine-2,4-dione] |
| 0.002 µM | 0.575 µM | CO[C@@H]1CCN(C(=O)c2cccc(-c3ccc4nc(C(c5nnc(CC6(C)NC(=O)NC6=O)o5)S(C)(=O)=O)sc4c3)c2)C1 (stereo partly drawn) [Example 211, 5-({5-[methanesulfonyl(6-{3-[(3R)-3-methoxy-pyrrolidine-1-carbonyl]phenyl}-1,3-benzothiazol-2-yl)methyl]-1,3,4-oxadiazol-2-yl}methyl)-5-methyl-imidazolidine-2,4-dione] |
| 0.002 µM | 1.1 µM | CC1(Cc2nnc(C(c3nc4ccc(-c5cccc(C(=O)N6CCC(O)CC6)c5)cc4s3)S(C)(=O)=O)o2)NC(=O)NC1=O (stereo not shown) [Example 212, 5-{[5-({6-[3-(4-hydroxypiperidine-1-carbonyl)phenyl]-1,3-benzothiazol-2-yl} (methanesulfonyl)methyl)-1,3,4-oxadiazol-2-yl]methyl}-5-methyl-imidazolidine-2,4-dione] |
| 0.01 µM | 0.262 µM | CNC(=O)c1cccc(-c2ccc3nc(C(c4nnc(CC5(C)NC(=O)NC5=O)o4)S(C)(=O)=O)sc3c2)c1 (stereo not shown) [Example 218, 3-{2-[methanesulfonyl({5-[(4-methyl-2,5-dioxoimidazolidin-4-yl)methyl]-1,3,4-oxadiazol-2-yl})methyl]-1,3-benzothiazol-6-yl}-N-methylbenzamide] |
| 0.002 µM | 2.3 µM | CC1(Cc2nnc(C(c3nc4ccc(-c5cccc(C(=O)N6CC[C@@H](O)C6)c5)cc4s3)S(C)(=O)=O)o2)NC(=O)NC1=O (stereo partly drawn) [Example 219, 5-({5-[(6-{3-[(3R)-3-hydroxypyrrolidine-1-carbonyl]phenyl}-1,3-benzothiazol-2-yl) (methanesulfonyl)methyl]-1,3,4-oxadiazol-2-yl}methyl)-5-methyl-imidazolidine-2,4-dione] |
| 0.001 µM | 0.025 µM | CN(C(=O)c1cccc(-c2ccc3nc(C(c4nnc(CC5(C)NC(=O)NC5=O)o4)S(C)(=O)=O)sc3c2)c1)C1CC1 (stereo not shown) [Example 221, N-cyclopropyl-3-{2-[methanesulfonyl({5-[(4-methyl-2,5-dioxoimidazolidin-4-yl)methyl]-1,3,4-oxadiazol-2-yl})methyl]-1,3-benzothiazol-6-yl}-N-methylbenzamide] |
| 0.008 µM | 0.162 µM | COC1(C)CN(C(=O)c2cccc(-c3ccc4nc(C(c5nnc(CC6(C)NC(=O)NC6=O)o5)S(C)(=O)=O)sc4c3)c2)C1 (stereo not shown) [Example 222, 5-({5-[methanesulfonyl({6-[3-(3-methoxy-3-methyl-azetidine-1-carbonyl)phenyl]-1,3-benzothiazol-2-yl})methyl]-1,3,4-oxadiazol-2-yl}methyl)-5-methyl-imidazolidine-2,4-dione] |
| 0.032 µM | 0.055 µM | CC1(Cc2nnc(C(c3nc4ccc(-c5cccc(C(=O)NC6CC(F)(F)C6)c5)cc4s3)S(C)(=O)=O)o2)NC(=O)NC1=O (stereo not shown) [Example 223, N-(3,3-difluorocyclobutyl)-3-{2-[methanesulfonyl({5-[(4-methyl-2,5-dioxo-imidazolidin-4-yl)methyl]-1,3,4-oxadiazol-2-yl})methyl]-1,3-benzothiazol-6-yl} benzamide] |
